From ChEMBL document CHEMBL1152560, “Substituted 2-arylbenzothiazoles as kinase inhibitors: hit-to-lead optimization” (Bioorg Med Chem, 2009)

Legend:
[1] = target: T1, Serine/threonine-protein kinase DCLK2 (Homo sapiens) (UniProt Q8N568); assay: Residual activity of DCAMKL2 at 1 uM by microplate scintillation counting
T1 sequence (whole entry): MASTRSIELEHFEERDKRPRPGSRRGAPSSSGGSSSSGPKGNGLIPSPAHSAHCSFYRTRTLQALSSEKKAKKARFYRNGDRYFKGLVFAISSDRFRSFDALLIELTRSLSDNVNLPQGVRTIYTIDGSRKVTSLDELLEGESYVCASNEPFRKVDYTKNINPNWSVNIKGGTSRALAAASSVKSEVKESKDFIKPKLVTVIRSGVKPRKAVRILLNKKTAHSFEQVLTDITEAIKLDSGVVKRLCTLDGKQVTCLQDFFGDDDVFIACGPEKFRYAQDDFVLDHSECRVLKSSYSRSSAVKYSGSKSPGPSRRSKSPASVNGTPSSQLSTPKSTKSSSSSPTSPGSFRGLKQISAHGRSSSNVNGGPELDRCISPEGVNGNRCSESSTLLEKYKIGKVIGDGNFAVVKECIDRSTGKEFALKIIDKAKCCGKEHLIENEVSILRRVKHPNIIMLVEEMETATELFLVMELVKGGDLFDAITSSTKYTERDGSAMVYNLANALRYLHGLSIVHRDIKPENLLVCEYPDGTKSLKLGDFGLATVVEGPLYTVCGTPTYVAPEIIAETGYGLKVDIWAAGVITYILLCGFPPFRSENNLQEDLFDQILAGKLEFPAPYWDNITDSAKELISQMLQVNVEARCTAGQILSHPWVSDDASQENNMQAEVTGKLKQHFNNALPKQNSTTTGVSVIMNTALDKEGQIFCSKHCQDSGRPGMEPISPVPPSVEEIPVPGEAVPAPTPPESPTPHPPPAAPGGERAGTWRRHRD

[2] = target: Fibroblast growth factor receptor 4 (Homo sapiens) (UniProt P22455); assay: Residual activity of FGFR4 at 1 uM by microplate scintillation counting
[3] = target: T2, Phosphorylase b kinase gamma catalytic chain, liver/testis isoform (Homo sapiens) (UniProt P15735); assay: Residual activity of PHKG2 at 1 uM by microplate scintillation counting
T2 sequence (whole entry): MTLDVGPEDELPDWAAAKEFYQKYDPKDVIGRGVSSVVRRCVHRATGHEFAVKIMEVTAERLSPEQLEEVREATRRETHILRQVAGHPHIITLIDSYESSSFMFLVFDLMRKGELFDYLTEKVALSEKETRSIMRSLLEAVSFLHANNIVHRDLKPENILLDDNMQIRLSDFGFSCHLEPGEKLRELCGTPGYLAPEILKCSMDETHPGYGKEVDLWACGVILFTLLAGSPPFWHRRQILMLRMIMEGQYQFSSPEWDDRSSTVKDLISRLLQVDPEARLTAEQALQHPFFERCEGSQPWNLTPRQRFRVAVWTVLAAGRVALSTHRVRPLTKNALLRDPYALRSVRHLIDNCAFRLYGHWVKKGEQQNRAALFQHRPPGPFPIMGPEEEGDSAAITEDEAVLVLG

[4] = target: Serine/threonine-protein kinase 24 (Homo sapiens) (UniProt Q9Y6E0); assay: Residual activity of MST3 at 0.1 uM by microplate scintillation counting
[5] = target: NT-3 growth factor receptor (Homo sapiens) (UniProt Q16288); assay: Residual activity of TRK-C at 1 uM by microplate scintillation counting
[6] = target: T1, Serine/threonine-protein kinase DCLK2 (Homo sapiens); assay: Residual activity of DCAMKL2 at 10 uM by microplate scintillation counting
[7] = target: T3, Inhibitor of nuclear factor kappa-B kinase subunit beta (Homo sapiens) (UniProt O14920); assay: Residual activity of IKK-beta at 10 uM by microplate scintillation counting
T3 sequence (whole entry): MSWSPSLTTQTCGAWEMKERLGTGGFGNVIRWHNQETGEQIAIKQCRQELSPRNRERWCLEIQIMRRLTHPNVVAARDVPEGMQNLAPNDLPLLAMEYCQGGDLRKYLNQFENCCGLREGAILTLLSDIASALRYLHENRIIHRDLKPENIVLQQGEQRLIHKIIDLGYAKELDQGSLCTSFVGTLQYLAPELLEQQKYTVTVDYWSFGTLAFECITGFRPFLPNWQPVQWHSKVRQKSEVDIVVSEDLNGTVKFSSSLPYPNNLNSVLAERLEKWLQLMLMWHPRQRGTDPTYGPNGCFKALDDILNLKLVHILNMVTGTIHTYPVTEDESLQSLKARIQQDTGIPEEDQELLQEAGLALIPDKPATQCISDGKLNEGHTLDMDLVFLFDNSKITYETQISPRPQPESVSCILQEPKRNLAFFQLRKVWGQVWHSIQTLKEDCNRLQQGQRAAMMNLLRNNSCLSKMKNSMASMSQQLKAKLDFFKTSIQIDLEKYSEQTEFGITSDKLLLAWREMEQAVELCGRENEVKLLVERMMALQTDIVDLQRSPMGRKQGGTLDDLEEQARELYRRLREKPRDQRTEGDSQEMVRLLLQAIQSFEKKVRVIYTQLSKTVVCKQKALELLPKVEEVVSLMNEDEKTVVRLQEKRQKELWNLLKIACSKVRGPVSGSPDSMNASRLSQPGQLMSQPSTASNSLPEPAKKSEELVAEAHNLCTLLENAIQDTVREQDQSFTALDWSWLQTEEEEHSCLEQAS

[8] = target: Platelet-derived growth factor receptor beta (Homo sapiens, UniProt P09619); assay: Residual activity of PDGFRbeta at 0.1 uM by microplate scintillation counting
Sequence of Platelet-derived growth factor receptor beta (P09619 whole entry): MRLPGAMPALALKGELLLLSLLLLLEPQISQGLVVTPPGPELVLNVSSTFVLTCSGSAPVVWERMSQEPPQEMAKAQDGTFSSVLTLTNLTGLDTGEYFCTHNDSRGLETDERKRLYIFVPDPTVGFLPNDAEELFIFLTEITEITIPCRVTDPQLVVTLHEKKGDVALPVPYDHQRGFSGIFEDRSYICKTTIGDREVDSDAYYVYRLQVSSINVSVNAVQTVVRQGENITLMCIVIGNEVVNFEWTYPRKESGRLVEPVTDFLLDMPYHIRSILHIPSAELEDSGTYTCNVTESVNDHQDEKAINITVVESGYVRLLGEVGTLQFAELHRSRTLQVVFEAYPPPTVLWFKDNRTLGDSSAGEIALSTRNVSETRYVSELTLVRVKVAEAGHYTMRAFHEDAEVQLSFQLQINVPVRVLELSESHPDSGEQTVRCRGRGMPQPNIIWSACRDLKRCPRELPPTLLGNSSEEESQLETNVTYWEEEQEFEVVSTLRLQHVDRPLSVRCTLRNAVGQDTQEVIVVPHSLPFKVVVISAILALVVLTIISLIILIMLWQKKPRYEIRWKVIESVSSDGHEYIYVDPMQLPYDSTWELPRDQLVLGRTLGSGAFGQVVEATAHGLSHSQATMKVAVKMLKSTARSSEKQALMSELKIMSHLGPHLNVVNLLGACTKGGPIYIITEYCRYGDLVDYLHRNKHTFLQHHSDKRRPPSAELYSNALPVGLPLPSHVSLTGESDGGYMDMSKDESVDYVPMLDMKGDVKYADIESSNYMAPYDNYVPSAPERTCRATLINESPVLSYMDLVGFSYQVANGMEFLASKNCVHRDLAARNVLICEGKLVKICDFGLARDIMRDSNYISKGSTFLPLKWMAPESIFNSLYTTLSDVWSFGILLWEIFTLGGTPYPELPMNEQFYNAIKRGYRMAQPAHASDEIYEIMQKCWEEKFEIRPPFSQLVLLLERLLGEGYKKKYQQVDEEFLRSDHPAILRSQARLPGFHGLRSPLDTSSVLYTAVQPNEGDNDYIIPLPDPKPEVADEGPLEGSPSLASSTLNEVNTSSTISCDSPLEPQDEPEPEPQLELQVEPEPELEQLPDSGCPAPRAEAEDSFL

Sequence of Fibroblast growth factor receptor 4 (Homo sapiens) (P22455 22-802 limits assumed): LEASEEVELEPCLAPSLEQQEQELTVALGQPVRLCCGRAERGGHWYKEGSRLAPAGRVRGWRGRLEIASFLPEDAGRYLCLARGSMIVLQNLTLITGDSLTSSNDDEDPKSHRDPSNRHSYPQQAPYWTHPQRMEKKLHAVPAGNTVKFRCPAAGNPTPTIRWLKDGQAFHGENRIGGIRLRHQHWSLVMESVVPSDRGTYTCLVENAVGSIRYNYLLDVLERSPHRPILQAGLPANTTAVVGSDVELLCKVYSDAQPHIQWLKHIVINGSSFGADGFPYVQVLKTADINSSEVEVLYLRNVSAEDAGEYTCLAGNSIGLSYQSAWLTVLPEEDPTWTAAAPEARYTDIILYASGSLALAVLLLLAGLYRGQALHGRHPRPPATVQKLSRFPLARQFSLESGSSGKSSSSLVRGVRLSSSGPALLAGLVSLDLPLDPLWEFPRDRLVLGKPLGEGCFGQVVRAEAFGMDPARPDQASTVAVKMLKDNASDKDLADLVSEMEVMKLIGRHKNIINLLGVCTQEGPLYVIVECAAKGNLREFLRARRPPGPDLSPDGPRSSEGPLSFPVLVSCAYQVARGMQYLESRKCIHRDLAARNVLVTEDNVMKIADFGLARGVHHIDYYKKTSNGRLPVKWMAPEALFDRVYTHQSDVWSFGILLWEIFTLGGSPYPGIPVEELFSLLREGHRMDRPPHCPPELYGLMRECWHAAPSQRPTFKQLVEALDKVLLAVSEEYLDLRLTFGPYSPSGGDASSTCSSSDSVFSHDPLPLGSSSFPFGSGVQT
Sequence of Serine/threonine-protein kinase 24 (Homo sapiens) (Q9Y6E0 whole entry, looked up): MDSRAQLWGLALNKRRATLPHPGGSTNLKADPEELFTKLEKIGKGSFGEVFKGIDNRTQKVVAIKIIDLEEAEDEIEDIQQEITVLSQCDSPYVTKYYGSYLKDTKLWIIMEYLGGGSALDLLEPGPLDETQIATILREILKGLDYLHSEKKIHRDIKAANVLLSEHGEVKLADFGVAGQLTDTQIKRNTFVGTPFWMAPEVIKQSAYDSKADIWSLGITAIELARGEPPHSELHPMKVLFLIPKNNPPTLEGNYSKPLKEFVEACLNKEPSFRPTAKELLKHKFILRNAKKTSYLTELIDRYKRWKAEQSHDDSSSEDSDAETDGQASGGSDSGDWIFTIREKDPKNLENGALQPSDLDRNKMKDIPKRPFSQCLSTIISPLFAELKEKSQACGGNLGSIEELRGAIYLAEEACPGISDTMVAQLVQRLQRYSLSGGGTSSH
Sequence of NT-3 growth factor receptor (Homo sapiens) (Q16288 32-839 limits assumed): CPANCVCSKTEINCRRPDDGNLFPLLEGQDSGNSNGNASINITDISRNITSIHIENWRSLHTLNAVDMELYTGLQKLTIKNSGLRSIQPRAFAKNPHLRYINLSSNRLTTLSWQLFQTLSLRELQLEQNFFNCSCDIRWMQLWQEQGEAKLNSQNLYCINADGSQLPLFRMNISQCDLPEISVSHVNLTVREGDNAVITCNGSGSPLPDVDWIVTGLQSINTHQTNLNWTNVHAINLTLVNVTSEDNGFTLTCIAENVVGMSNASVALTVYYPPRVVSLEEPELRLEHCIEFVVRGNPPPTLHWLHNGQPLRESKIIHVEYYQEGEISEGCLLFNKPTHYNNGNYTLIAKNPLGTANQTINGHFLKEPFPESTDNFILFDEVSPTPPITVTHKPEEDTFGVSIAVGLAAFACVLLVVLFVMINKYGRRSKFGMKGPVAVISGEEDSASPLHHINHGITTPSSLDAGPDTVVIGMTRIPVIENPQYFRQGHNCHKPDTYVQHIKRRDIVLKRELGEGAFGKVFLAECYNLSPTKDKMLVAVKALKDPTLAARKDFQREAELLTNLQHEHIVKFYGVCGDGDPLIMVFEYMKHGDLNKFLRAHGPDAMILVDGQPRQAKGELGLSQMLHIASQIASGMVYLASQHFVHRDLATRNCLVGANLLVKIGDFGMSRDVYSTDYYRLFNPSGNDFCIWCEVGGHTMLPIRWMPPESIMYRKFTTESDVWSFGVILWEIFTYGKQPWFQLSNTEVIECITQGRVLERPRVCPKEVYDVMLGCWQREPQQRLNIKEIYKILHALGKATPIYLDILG

Compound | residual activity [1] | residual activity [2] | residual activity [3] | residual activity [4] | residual activity [5] | residual activity [6] | residual activity [7] | residual activity [8]
COc1cc2c(Oc3ccc(-c4nc5ccccc5s4)cc3)ncnc2cc1OCCCN1CCN(C)CC1 | 80% | 121% | 96% | 103% | 104% | 93% | 109% | 94%
COc1cc2c(Oc3ccc(-c4nc5ccccc5s4)cc3)ncnc2cc1OCCCN1CCCC1 | 71% | 137% | 80% | 98% | 124% | 97% | 135% | 95%
COc1cc2c(Oc3ccc(-c4nc5ccccc5s4)cc3F)ncnc2cc1OCCCN1CCN(C)CC1 | 76% | 130% | 72% | 104% | 104% | 115% | 116% | 95%
